The results in this text go back to US20220389013A1, “PYRIDOPYRIMIDINONE COMPOUNDS AND APPLICATIONS THEREOF” (BeBetter Med Inc., priority 2020, published 2022).

A short description of series [1]: Pharmacokinetic (PK) experiment in rats by gavage. The following applies: rat, plasma, po, male SD rats, 20 mg/kg; for AUC(0-t): read-out: AUC0-24. The class given is in vivo. Here is the method:
Male SD rats, weighing 180-250 g, were fasted overnight before the test and stomach administrated with the test compound at 20 mg/kg. 15 minutes, 30 minutes, and 1, 2, 4, 6, 8, and 24 hours after administration, blood was taken from the end of the tail of the fracture, about 0.3 mL per time point, then placed in a centrifuge tube containing K2-EDTA, and centrifuged (2000 g, 10 min, at 4° C.). Plasma was collected and stored in an ultra-low temperature freezer at −80° C. 50 μL of plasma samples were vortexed with 135 μL of acetonitrile (containing 1 μg/mL internal standard) for protein precipitation and centrifuged, and the supernatant was collected for LC-MS/MS analysis.
After the rats oral administrated with the Pyridopyrimidinone compounds provided by the present disclosure, the absorption is good, and the blood exposure is relatively high. […] Cmax refers to the maximum plasma concentration, T1/2 is the half-life, AUC0-24 refers to the area under the 0-24 hour time-concentration curve, and AUC0-inf refers to the area under the 0-Inf time-concentration curve.

The subject of another series is MIA-Paca2 (KRAS G12C). The series is described as follows: Tumor cell proliferation inhibition assay (CellTiter-Glo), MIA-Paca2. The class given is cell-based, Human. The following applies: Homo sapiens, MIA PaCa-2, 72 h, 10% fetal bovine serum. The procedure: (§1) The H358, H23 or MIA-Paca2 cells were digested, centrifuged and resuspended, and the cell density was measured with a Scepter automatic cell counter. Cells were diluted to a solution containing 44,000 cells per milliliter, then added to a 96-well culture plate at 90 μL per well. The 96-well plate was placed in a 5% CO2 incubator at 37° C., and after the cells were cultured for 24 hours, different concentrations of the compounds to be tested were added. Cells were incubated with compounds in the presence of 10% fetal bovine serum for 72 hours. The inhibition of cell growth was assessed by measuring ATP levels by using the CellTiter-Glo Luminescent Cell Viability Assay Kit (details in manufacturer's instructions). In brief, 30 μL of CellTiter-Glo reagent was added to each well and the plate was shaken for 10 minutes to induce cell lysis, then the fluorescent signal was detected and recorded with a Fluoroskan Ascent FL (Thermo). Maximum signal values were obtained from cells treated with DMSO for 72 hours. Minimum signal values were obtained with medium only (zero cell number). Inhibition rate %=(maximum signal value-compound signal value)/(maximum signal value-minimum signal value)×100%. Data were processed by using Graphpad prism5 software. IC50 values were calculated using a sigmoidal dose-response curve.

Another series relates to H358 (KRAS G12C). As to the kind of experiment: Tumor cell proliferation inhibition assay (CellTiter-Glo), H358. The class given is cell-based, Human. The following applies: Homo sapiens, NCI-H358, 72 h, 10% fetal bovine serum. Here is the method:
as §1

Bounds are passed on as bounds.

Consider `C=CC(=O)N1CCN(c2nc(=O)n(-c3c(C)ccnc3C(C)C)c3nc(-c4c(F)ccc5c4OCO5)c(F)cc23)[C@@H](C)C1` [Compound 69, 4-((S)-4-acryloyl-2-methylpiperazin-1-yl)-6-fluoro-7-(5-fluorobenzo[d][1,3]dioxol-4-yl)-1-(2-isopropyl-4-methylpyridin-3-yl)pyrido[2,3-d]pyrimidin-2(1H)-one], for which, in series [1], the AUC(0-inf) was found to be 9930 ng·h/mL, the Cmax was 4390 ng/mL, the Tmax was determined as 49.8 min and the half-life is 323 min. Also, the AUC(0-t) in series [1] amounted to 9920 ng·h/mL. The same molecule registered an IC50 in the series on MIA-Paca2 (KRAS G12C) of 50 to 100 nM. The molecule also had an IC50 with H358 (KRAS G12C) of 10 to 50 nM.
As to `C=CC(=O)N1CCN(c2nc(=O)n(-c3c(C)ccnc3C(C)C)c3nc(-c4c(F)ccc5ccsc45)c(F)cc23)[C@@H](C)C1` [Compound 71, 4-((S)-4-Acryloyl-2-methylpiperazin-1-yl)-6-fluoro-7-(6-fluorobenzo[b]thiophen-7-yl)-1-(2-isopropyl-4-methylpyridin-3-yl)pyrido[2,3-d]pyrimidin-2(1H)-one], the melting point lay in the range of 148 to 150 °C. The IC50 in the series on MIA-Paca2 (KRAS G12C) lay in the range of 50 to 100 nM. The IC50 in the series with H358 (KRAS G12C) lay in the range of 10 to 50 nM.
For `C=CC(=O)N1CCN(c2nc(=O)n(-c3c(C)ccnc3C(C)C)c3nc(-c4c(F)ccc5ncsc45)c(F)cc23)[C@@H](C)C1` [Compound 78, 4-((S)-4-acryloyl-2-methylpiperazin-1-yl)-6-fluoro-7-(6-fluorobenzo[d]thiazol-7-yl)-1-(2-isopropyl-4-methylpyridin-3-yl)pyrido[2,3-d]pyrimidin-2(1H)-one] the same measures were 158 to 162 °C, over 500 nM and 100 to 500 nM.
Regarding `C=CC(=O)N1CCN(c2nc(=O)n(-c3c(C)ccnc3C(C)C)c3nc(-c4c(F)cc(F)c5ccoc45)c(Cl)cc23)[C@@H](C)C1` [Compound 102, 4-((S)-4-acryloyl-2-methylpiperazin-1-yl)-6-chloro-7-(4,6-difluorobenzofuran-7-yl)-1-(2-isopropyl-4-methylpyridin-3-yl)pyrido[2,3-d]pyrimidin-2(1H)-one], in series [1], the area under the curve AUC(0-inf) is 14200 ng·h/mL, the highest level (Cmax) was 3720 ng/mL, the Tmax is 60 min and the half-life is 171 min. In addition, the AUC(0-t) in series [1] was 14200 ng·h/mL. In the series with MIA-Paca2 (KRAS G12C), this molecule returned an IC50 of 10 to 50 nM. Further, the IC50 with H358 (KRAS G12C) is under 10 nM.
Regarding `C=CC(=O)N1CCN(c2nc(=O)n(-c3c(C)ccnc3C(C)C)c3nc(-c4cccc5ccoc45)c(F)cc23)[C@@H](C)C1` [Compound 107, (S)-4-(4-acryloyl-2-methylpiperazin-1-yl)-7-(benzofuran-7-yl)-6-fluoro-1-(2-isopropyl-4-methylpyridin-3-yl)pyrido[2,3-d]pyrimidin-2(1H)-one], the IC50 is over 500 nM in the series with MIA-Paca2 (KRAS G12C) and 100 to 500 nM in the series with H358 (KRAS G12C).
`C=CC(=O)N1CCN(c2nc(=O)n(-c3c(C)ccnc3C(C)C)c3nc(-c4c(C)ccc5ccoc45)c(F)cc23)[C@@H](C)C1` [Compound 108, 4-((S)-4-acryloyl-2-methylpiperazin-1-yl)-6-fluoro-1-(2-isopropyl-4-methylpyridin-3-yl)-7-(6-methylbenzofuran-7-yl)pyrido[2,3-d]pyrimidin-2(1H)-one]: the melting point lay in the range of 151 to 163 °C. Further, the IC50 in the series with MIA-Paca2 (KRAS G12C) was in the range of 100 to 500 nM. In addition, in the series on H358 (KRAS G12C), the IC50 lay within 10 to 50 nM.
For `C=CC(=O)N1CCN(c2nc(=O)n(-c3c(C)ccnc3C(C)C)c3nc(-c4c(OC)ccc5ccoc45)c(F)cc23)[C@@H](C)C1` [Compound 109, 4-((S)-4-acryloyl-2-methylpiperazin-1-yl)-6-fluoro-1-(2-isopropyl-4-methylpyridin-3-yl)-7-(6-methoxybenzofuran-7-yl)pyrido[2,3-d]pyrimidin-2(1H)-one] the same measures were 156 to 158 °C, 100 to 500 nM and 50 to 100 nM.
For the molecule `C=CC(=O)N1CCN(c2nc(=O)n(-c3c(C)ccnc3C(C)C)c3nc(-c4c(F)c(O)cc5ccoc45)c(Cl)cc23)[C@@H](C)C1` [Compound 110, 4-((S)-4-acryloyl-2-methylpiperazin-1-yl)-6-chloro-7-(6-fluoro-5-hydroxybenzofuran-7-yl)-1-(2-isopropyl-4-methylpyridin-3-yl)pyrido[2,3-d]pyrimidin-2(1H)-one], the melting point is 92 to 104 °C. For the same molecule, the IC50 in the series on H358 (KRAS G12C) lay within 10 to 50 nM.
With `C=CC(=O)N1CCN(c2nc(=O)n(-c3c(C)ccnc3C(C)C)c3nc(-c4c(F)c(OC)cc5ccoc45)c(Cl)cc23)[C@@H](C)C1` [Compound 111, 4-((S)-4-acryloyl-2-methylpiperazin-1-yl)-6-chloro-7-(6-fluoro-5-methoxybenzofuran-7-yl)-1-(2-isopropyl-4-methylpyridin-3-yl)pyrido[2,3-d]pyrimidin-2(1H)-one], the melting point fell in the range of 101 to 113 °C. In the series with H358 (KRAS G12C), this molecule gave an IC50 of 50 to 100 nM.
Consider `C=CC(=O)N1CCN(c2nc(=O)n(-c3c(C)ccnc3C(C)C)c3nc(-c4c(Cl)ccc5ccoc45)c(F)cc23)[C@@H](C)C1` [Compound 112, 4-((S)-4-acryloyl-2-methylpiperazin-1-yl)-7-(6-chlorobenzofuran-7-yl)-6-fluoro-1-(2-isopropyl-4-methylpyridin-3-yl)pyrido[2,3-d]pyrimidin-2(1H)-one], for which the IC50 in the series on MIA-Paca2 (KRAS G12C) was 50 to 100 nM; with H358 (KRAS G12C), 10 to 50 nM.
In turn, `C/C=C/C(=O)N1CCN(c2nc(=O)n(-c3c(C)ccnc3C(C)C)c3nc(-c4cc5ccoc5cc4F)c(F)cc23)[C@@H](C)C1` [Compound 113, (S,E)-4-(4-(but-2-enoyl)-2-methylpiperazin-1-yl)-6-fluoro-7-(6-fluorobenzofuran-5-yl)-1-(2-isopropyl-4-methylpyridin-3-yl)pyrido[2,3-d]pyrimidin-2(1H)-one] gave a melting point of 155 to 157 °C. Also, the IC50 in the series with MIA-Paca2 (KRAS G12C) was over 500 nM. Further, in the series with H358 (KRAS G12C), the IC50 is over 500 nM.
As to `Cc1ccnc(C(C)C)c1-n1c(=O)nc(N2CCN(C(=O)/C=C/CN(C)C)C[C@@H]2C)c2cc(F)c(-c3cc4ccoc4cc3F)nc21` [Compound 114, (S,E)-4-(4-(4-(dimethylamino)but-2-enoyl)-2-methylpiperazin-1-yl)-6-fluoro-7-(6-fluorobenzofuran-5-yl)-1-(2-isopropyl-4-methylpyridin-3-yl)pyrido[2,3-d]pyrimidin-2(1H)-one], the melting point fell in the range of 162 to 164 °C. For the same molecule, the IC50 in the series with MIA-Paca2 (KRAS G12C) was over 500 nM. Besides, the IC50 with H358 (KRAS G12C) is over 500 nM.
Take `COC/C=C/C(=O)N1CCN(c2nc(=O)n(-c3c(C)ccnc3C(C)C)c3nc(-c4cc5ccoc5cc4F)c(F)cc23)[C@@H](C)C1` [Compound 115, (S,E)-6-fluoro-7-(6-fluorobenzofuran-5-yl)-1-(2-isopropyl-4-methylpyridin-3-yl)-4-(4-(4-methoxybut-2-enoyl)-2-methylpiperazin-1-yl)pyrido[2,3-d]pyrimidin-2(1H)-one]: the melting point is 136 to 138 °C. In the series on MIA-Paca2 (KRAS G12C), this molecule yielded an IC50 of over 500 nM. For the same molecule, in the series on H358 (KRAS G12C), the IC50 was over 500 nM.
Molecule `C=CC(=O)N1CCN(c2nc(=O)n(-c3c(C(C)C)ncnc3C(C)C)c3nc(-c4c(F)ccc5ccoc45)c(Cl)cc23)[C@@H](C)C1` [Compound 118, 4-((S)-4-acryloyl-2-methylpiperazin-1-yl)-6-chloro-1-(4,6-diisopropylpyrimidin-5-yl)-7-(6-fluorobenzofuran-7-yl)pyrido[2,3-d]pyrimidin-2(1H)-one] showed a melting point of 254 to 256 °C. Further, the IC50 with H358 (KRAS G12C) was under 10 nM.
Take `C=CC(=O)N1CCN(c2nc(=O)n(-c3ccccc3C(C)C)c3nc(-c4c(F)ccc5ccoc45)c(F)cc23)[C@@H](C)C1` [Compound 120, 4-((S)-4-acryloyl-2-methylpiperazin-1-yl)-6-fluoro-7-(6-fluorobenzofuran-7-yl)-1-(2-isopropylphenyl)pyrido[2,3-d]pyrimidin-2(1H)-one]: the IC50 was 100 to 500 nM with MIA-Paca2 (KRAS G12C) and 11 nM in the series with H358 (KRAS G12C).
Turning to `C=CC(=O)N1CCN(c2nc(=O)n(-c3c(C(C)C)ccnc3C(C)C)c3nc(-c4c(F)ccc5ccoc45)c(F)cc23)[C@@H](C)C1` [Compound 121, 4-((S)-4-acryloyl-2-methylpiperazin-1-yl)-1-(2,4-diisopropylpyridin-3-yl)-6-fluoro-7-(6-fluorobenzofuran-7-yl)pyrido[2,3-d]pyrimidin-2(1H)-one], the IC50 in the series on MIA-Paca2 (KRAS G12C) and in the series with H358 (KRAS G12C) was 10 to 50 nM each time.
